According to publication PMC6199744, “Development of Chemical Proteomics for the Folateome and Analysis of the Kinetoplastid Folateome” (ACS Infectious Diseases, 2018):
Like-named read-outs stand apart in the source and are kept apart here.

Tests used:
Format in all cases: binding
[1] = target: T1, HeLa cell extract proteins (Homo sapiens, UniProt Q9NWZ8)
T1 construct: endogenous in cells; host or cells: HeLa cell extract
T1 sequence (Q9NWZ8 1-242): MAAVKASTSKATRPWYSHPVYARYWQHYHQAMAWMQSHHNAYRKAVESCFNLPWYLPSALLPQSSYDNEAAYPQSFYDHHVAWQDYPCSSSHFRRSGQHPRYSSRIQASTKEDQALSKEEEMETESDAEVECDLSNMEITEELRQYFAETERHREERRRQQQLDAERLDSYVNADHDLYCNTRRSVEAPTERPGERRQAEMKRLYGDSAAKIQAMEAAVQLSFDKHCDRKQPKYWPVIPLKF

[2] = target: T2, HeLa cell extract proteins (Homo sapiens, UniProt Q9P2E9)
T2 construct: endogenous in cells; host or cells: HeLa cell extract
T2 sequence (Q9P2E9 1-1410): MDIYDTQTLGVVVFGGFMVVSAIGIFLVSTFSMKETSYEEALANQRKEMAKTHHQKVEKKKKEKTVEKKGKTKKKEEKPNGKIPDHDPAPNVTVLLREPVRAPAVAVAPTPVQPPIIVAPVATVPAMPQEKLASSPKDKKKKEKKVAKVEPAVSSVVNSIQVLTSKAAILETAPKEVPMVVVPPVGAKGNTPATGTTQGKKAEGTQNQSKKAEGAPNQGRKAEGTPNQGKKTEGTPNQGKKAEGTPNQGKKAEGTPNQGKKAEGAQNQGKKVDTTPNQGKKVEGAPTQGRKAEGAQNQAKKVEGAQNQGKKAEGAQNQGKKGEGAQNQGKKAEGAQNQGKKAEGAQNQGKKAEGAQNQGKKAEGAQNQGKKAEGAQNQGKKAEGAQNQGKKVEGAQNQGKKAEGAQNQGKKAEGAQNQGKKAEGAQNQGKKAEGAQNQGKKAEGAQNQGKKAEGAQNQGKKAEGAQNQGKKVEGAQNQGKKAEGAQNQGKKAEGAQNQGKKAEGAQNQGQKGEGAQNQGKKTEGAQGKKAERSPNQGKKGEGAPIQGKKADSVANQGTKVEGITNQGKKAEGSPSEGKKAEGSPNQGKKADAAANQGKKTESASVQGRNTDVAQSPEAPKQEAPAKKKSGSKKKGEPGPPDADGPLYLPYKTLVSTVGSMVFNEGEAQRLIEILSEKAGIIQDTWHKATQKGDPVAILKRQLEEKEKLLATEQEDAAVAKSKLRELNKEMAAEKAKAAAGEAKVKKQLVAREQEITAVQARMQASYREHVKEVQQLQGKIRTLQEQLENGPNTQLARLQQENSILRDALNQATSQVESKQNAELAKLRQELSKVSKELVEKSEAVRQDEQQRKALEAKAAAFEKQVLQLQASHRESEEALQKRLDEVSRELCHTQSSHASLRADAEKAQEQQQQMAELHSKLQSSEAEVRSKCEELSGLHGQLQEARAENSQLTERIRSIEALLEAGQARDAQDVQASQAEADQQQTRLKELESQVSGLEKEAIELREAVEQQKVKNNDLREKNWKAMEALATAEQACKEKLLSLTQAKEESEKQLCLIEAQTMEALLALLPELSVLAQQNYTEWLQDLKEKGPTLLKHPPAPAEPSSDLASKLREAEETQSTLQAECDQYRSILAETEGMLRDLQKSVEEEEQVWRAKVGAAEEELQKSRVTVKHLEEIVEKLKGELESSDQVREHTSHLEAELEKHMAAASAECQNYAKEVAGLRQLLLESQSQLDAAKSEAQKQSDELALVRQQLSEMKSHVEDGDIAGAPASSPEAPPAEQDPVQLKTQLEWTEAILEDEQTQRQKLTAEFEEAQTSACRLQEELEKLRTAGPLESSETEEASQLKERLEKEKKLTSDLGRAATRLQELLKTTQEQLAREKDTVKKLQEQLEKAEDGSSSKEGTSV

[3] = target: T3, HeLa cell extract proteins (Homo sapiens, UniProt Q9UPN7)
T3 construct: endogenous in cells; host or cells: HeLa cell extract
T3 sequence (Q9UPN7 1-881): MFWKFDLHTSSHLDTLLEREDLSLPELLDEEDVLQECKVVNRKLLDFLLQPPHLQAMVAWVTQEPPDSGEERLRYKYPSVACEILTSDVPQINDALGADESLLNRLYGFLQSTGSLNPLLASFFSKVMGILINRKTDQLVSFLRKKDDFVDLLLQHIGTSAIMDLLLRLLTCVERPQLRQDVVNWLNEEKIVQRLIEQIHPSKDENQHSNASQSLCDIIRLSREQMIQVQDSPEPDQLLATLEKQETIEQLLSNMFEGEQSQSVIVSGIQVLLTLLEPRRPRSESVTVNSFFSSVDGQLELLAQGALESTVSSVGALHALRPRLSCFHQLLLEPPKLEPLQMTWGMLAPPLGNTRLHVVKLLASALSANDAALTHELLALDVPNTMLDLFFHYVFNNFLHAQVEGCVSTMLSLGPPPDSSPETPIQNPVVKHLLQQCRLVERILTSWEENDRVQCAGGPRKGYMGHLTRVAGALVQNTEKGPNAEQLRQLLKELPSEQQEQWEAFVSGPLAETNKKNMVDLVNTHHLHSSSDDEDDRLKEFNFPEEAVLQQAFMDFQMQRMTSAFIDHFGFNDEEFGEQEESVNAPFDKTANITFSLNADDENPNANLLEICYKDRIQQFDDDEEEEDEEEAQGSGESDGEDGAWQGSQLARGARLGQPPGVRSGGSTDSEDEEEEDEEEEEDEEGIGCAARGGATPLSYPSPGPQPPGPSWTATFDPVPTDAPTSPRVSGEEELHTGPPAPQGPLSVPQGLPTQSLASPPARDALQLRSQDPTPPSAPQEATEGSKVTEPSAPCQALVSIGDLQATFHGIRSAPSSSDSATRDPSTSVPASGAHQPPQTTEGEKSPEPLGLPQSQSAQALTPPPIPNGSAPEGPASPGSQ

[4] = target: T4, HeLa cell extract proteins (Homo sapiens, UniProt P61081); settings: protein UBE2M; HeLa
T4 construct: endogenous in cells; host or cells: HeLa cell extract
T4 sequence (P61081 1-183): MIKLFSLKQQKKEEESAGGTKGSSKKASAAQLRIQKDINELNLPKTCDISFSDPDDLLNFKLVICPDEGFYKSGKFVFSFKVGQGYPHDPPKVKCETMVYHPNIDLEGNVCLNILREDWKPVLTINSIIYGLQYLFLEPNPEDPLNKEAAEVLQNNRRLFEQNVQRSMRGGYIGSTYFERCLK

[5] = target: T5, HeLa cell extract proteins (Homo sapiens, UniProt P39687); settings: protein ANP32A; HeLa
T5 construct: endogenous in cells; host or cells: HeLa cell extract

[6] = HeLa, protein SAPS1 (SAPS1 PROTEIN)

T5 sequence (P39687 whole entry): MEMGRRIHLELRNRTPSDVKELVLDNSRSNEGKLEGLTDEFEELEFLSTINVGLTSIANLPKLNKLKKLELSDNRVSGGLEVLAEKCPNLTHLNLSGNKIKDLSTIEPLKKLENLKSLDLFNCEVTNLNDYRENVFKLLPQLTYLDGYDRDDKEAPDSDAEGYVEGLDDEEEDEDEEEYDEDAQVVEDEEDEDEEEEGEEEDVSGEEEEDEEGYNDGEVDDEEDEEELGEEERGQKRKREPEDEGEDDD

| SMILES | fold changes relative to vehicle control ([1]; HeLa, protein GEMIN8) | fold changes relative to vehicle control ([2]; HeLa, protein RRBP1) | fold changes relative to vehicle control [3, 6] | fold changes relative to vehicle control [4] | fold changes relative to vehicle control [5] | also measured |
| --- | --- | --- | --- | --- | --- | --- |
| Nc1nc2c(c(=O)[nH]1)N(C=O)C(CNc1ccc(C(=O)N[C@@H](CCC(=O)O)C(=O)O)cc1)CN2 (stereo partly drawn) [LEU, leucovorin] | 0.97 | 1.08 | 1.01 | – | – | – |
| Nc1nc2[nH]cc(CCc3ccc(C(=O)N[C@@H](CCC(=O)O)C(=O)O)cc3)c2c(=O)[nH]1 [PTX, pemetrexed] | – | – | – | – | – | fold changes relative to vehicle control [1]: 0.97; fold changes relative to vehicle control [2]: 1.03; fold changes relative to vehicle control [3]: 1.49 |
| CCCCCCOc1ccc(Cc2cnc(N)nc2N)cc1 [compound 1] | – | – | – | 1.2 | 1.44 | – |
| CCCCCCOc1cccc(Cc2cnc(N)nc2N)c1 [compound 2] | – | – | – | 1.71 | 2.37 | – |
| Nc1nc2cccc(-c3ccccc3)c2n1Cc1ccc(Cl)c(Cl)c1 [compound 3] | – | – | – | 0.83 | 0.78 | – |
| NCCOCCOCC(=O)Nc1nc2ncc(CNc3ccc(C(=O)NC(CCC(=O)O)C(=O)O)cc3)nc2c(=O)[nH]1 (stereo not drawn) [compound 6] | 0.8 | 1.35 | 1.29 | – | – | – |
| NCCCNc1ccc(C(=O)NC(CCC(=O)O)C(=O)O)cc1 (stereo not drawn) [compound 7] | 0.86 | 1 | 1.32 | – | – | – |
